Assay results as given in patent US20230248036A1, “FLAVOUR ADDITIVES” (MARS, INCORPORATED, priority 2012, published 2023).

How the values were obtained:
[1] = tested on: T1R1/T1R3 receptor (umami receptor); assay: In vitro screening for binding and activation of the umami receptor; assay type: biochemical; details: in vitro assays using a non-human umami receptor (with in silico modelling); screening in the presence of 0.2 mM IMP
Method: In vitro screening was carried out in order to establish which first amino acids bind and activate the umami receptor.
In vitro screening was carried out in order to establish which second amino acids bind and activate the umami receptor.

feline umami receptor = assay: Ligand binding of the feline umami receptor; details: natural ligands of the human T1R1/T1R3 receptor
Description: As mentioned above, in addition to in silico modelling of the feline umami receptor, sequence alignments of the human, cat and dog receptors have been performed. […] Therefore, due to these significant differences, it would not be expected by the skilled person that compounds that are known to bind to the human receptor would affect the umami receptor of other animals as described herein.

Ability to bind to and activate the umami receptor [1] | Binding to the feline umami receptor (feline umami receptor) | Structure (SMILES)
do not activate | – | C[C@@H](O)[C@H](N)C(=O)O [threonine]
able to bind to and activate | – | NCC(=O)O [glycine]
able to bind to and activate | – | N[C@@H](Cc1c[nH]cn1)C(=O)O [histidine]
– | does not bind | N[C@@H](CCC(=O)O)C(=O)O [glutamate]
